# Measured values from PubChem BioAssay AID258 (DTP/NCI, 2004).
# Inconclusive results and toxic doses are left out.
# Test system: CD2F1 mice, L1210 leukemia sc, survival T/C
# Assay: NCI In Vivo Anticancer Drug Screen. Data for tumor model L1210 Leukemia (subcutaneous) in CD2F1 (CDF1) mice
# Conditions: endpoint: median survival time, vehicle: saline, higher = longer survival
# Outline: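 Compound given to mice bearing transplantable tumor. Survival or tumor size then recorded. Result expressed relative to vehicle-dosed control group as T/C.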
smiles,measurement,setting,value
C1CN1c1nc(N2CC2)nc(N2CC2)n1,T/C,"dose: 0.1 mg/kg/injection, schedule: Q01DX009 (ip)",110 % of control
same,T/C,"dose: 0.1 mg/kg/injection, schedule: Q01DX009 (sc)",108 % of control
same,T/C,"dose: 0.2 mg/kg/injection, schedule: Q01DX009 (ip)",117 % of control
same,T/C,"dose: 0.2 mg/kg/injection, schedule: Q01DX009 (sc)",118 % of control
same,T/C,"dose: 0.27 mg/kg/injection, schedule: Q01DX009 (ip)",114 % of control
same,T/C,"dose: 0.27 mg/kg/injection, schedule: Q01DX009 (sc)",110 % of control
same,T/C,"dose: 0.4 mg/kg/injection, schedule: Q01DX009 (ip)",151 % of control
same,T/C,"dose: 0.45 mg/kg/injection, schedule: Q01DX009 (ip)",157 % of control
same,T/C,"dose: 0.45 mg/kg/injection, schedule: Q01DX009 (sc)",168 % of control
same,T/C,"dose: 0.6 mg/kg/injection, schedule: Q01DX009 (ip)",184 % of control
same,T/C,"dose: 0.6 mg/kg/injection, schedule: Q01DX009 (sc)",180 % of control
same,T/C,"dose: 0.8 mg/kg/injection, schedule: Q01DX009 (ip)",119 % of control
same,T/C,"dose: 0.9 mg/kg/injection, schedule: Q01DX009 (ip)",101 % of control
same,T/C,"dose: 0.9 mg/kg/injection, schedule: Q01DX009 (sc)",113 % of control
